In PubChem BioAssay (NCI) one finds GI50 and TGI data, which are given here for 14 compounds.

Where “and” joins values, the source holds several entries; their conditions need not be identical. Equal entries are not always repeated.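 Cultured in 96-well plates, cells were exposed to test compound for 48 hours across five concentrations. Abbreviation: GI50, concentration required for 50% inhibition of growth. At the TGI there is no net growth.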

Among the test systems are SF-268 CNS; OVCAR-8 ovarian; HOP-92 NSCLC; SF-295 CNS; HS 578T breast; OVCAR-3 ovarian; HCT-116 colon; SNB-19 CNS; K-562 leukemia; DU-145 prostate.
What all share (assay): NCI tumour cell line growth inhibition, 48 h

With `CC(C)(C)n1cc(-c2ccnc(NCCNS(=O)(=O)c3cccc4ccccc34)c2)c(-c2cccc(F)c2)n1`, the GI50 with SF-268 CNS was 40.3 µM; in the test on OVCAR-8 ovarian, 26.7 µM; in the test on HOP-92 NSCLC, 2.74 µM; with SF-295 CNS it was 22.3 µM; with HS 578T breast it was 16.7 µM; with OVCAR-3 ovarian it was 15.4 µM. Also, the GI50 in the test with HCT-116 colon was 4.62 µM; with SNB-19 CNS, 34.9 µM; in the test with K-562 leukemia, 5.9 µM; in the test on DU-145 prostate it was 26.7 µM. For the same compound, the TGI is above 100 µM with SF-268 CNS; above 100 µM in the test on OVCAR-8 ovarian; 21.2 µM with HOP-92 NSCLC; 57.3 µM in the test with SF-295 CNS; 46 µM in the test on HS 578T breast; 30.4 µM in the test on OVCAR-3 ovarian. The TGI in the test with HCT-116 colon is 19.2 µM; in the test on SNB-19 CNS, above 100 µM; in the test with K-562 leukemia it was 82.2 µM; with DU-145 prostate, above 100 µM.

`CS(=O)(=O)CS(=O)CS(=O)CS(=O)CC(NC(=O)CCC(N)C(=O)O)C(=O)O` (stereo not given): the TGI in the test on SF-268 CNS, with OVCAR-8 ovarian, in the test with HOP-92 NSCLC, in the test on SF-295 CNS, in the test on HS 578T breast and in the test on OVCAR-3 ovarian was above 100 µM in each case. Moreover, the TGI with HCT-116 colon, in the test with SNB-19 CNS, in the test with K-562 leukemia and with DU-145 prostate was above 100 µM throughout.

Regarding `COc1ccc(-c2[nH]ncc2-c2cc(OC)c(OC)c(OC)c2)cc1`, the GI50 in the test on SF-268 CNS was below 0.0127 µM; in the test on OVCAR-8 ovarian, below 0.0124 µM; in the test with HOP-92 NSCLC, below 0.01 µM; with SF-295 CNS it was below 0.01 µM; in the test with HS 578T breast, below 0.01 µM; in the test on OVCAR-3 ovarian, below 0.01 µM. Moreover, the GI50 with HCT-116 colon, in the test with SNB-19 CNS, in the test on K-562 leukemia and with DU-145 prostate was below 0.01 µM each time. For the same compound, the TGI was above 38.1 µM in the test with SF-268 CNS; above 33.2 µM in the test with OVCAR-8 ovarian; 0.901 µM in the test with HOP-92 NSCLC; below 0.01 µM in the test on SF-295 CNS; 7.24 µM in the test on HS 578T breast; 12.2 µM in the test on HCT-116 colon. Moreover, the TGI was above 100 µM in the test with SNB-19 CNS, above 34.4 µM in the test with K-562 leukemia and 1.64 µM in the test with DU-145 prostate.

Regarding `CCc1nc(N)nc(N)c1-c1ccc(Cl)c(N=NN(C)C)c1`, the TGI with SF-268 CNS was above 100 µM; in the test on OVCAR-8 ovarian, above 100 µM; in the test on HOP-92 NSCLC, above 100 µM; in the test with SF-295 CNS, above 100 µM; in the test with HS 578T breast it was above 100 µM; in the test on OVCAR-3 ovarian, above 91.5 µM. Also, the TGI with HCT-116 colon was above 75.1 µM; with SNB-19 CNS it was above 100 µM; in the test with K-562 leukemia, above 65 µM; with DU-145 prostate, above 100 µM.

On to `Oc1ccc(SCc2ccc(NCc3ccccc3)cc2)cc1`, for which the TGI with SF-268 CNS, in the test with OVCAR-8 ovarian, in the test with HOP-92 NSCLC, in the test with SF-295 CNS, in the test on HS 578T breast and in the test on OVCAR-3 ovarian was above 100 µM each time. In addition, the TGI in the test on HCT-116 colon was above 100 µM; with SNB-19 CNS, 64.8 µM; in the test on K-562 leukemia it was above 100 µM; in the test on DU-145 prostate it was above 100 µM.

Take `COc1ccc(Cn2cc(Cn3c(=O)c(-c4nc5ccccc5[nH]4)cc4ccccc43)nn2)c(OC)c1OC`: the GI50 is 0.55 µM and 0.477 µM in the test with SF-268 CNS; 0.213 µM and 0.486 µM in the test on OVCAR-8 ovarian; 0.48 µM and 0.39 µM in the test with HOP-92 NSCLC; 0.239 µM and 0.324 µM in the test on SF-295 CNS; 0.0778 µM and 0.168 µM in the test with HS 578T breast; 0.165 µM and 0.292 µM with OVCAR-3 ovarian. The GI50 was 0.094 µM and 0.0954 µM with HCT-116 colon; 0.423 µM with SNB-19 CNS; 0.162 µM and 0.191 µM in the test on K-562 leukemia; 0.22 µM in the test with DU-145 prostate. Moreover, the TGI was 1.92 µM and 9.69 µM in the test with HOP-92 NSCLC; 1.19 µM and 1.94 µM in the test on SF-295 CNS; 0.633 µM and 1.19 µM with OVCAR-3 ovarian; 1.25 µM and 1.73 µM in the test on HCT-116 colon; above 100 µM in the test on SNB-19 CNS; 50 µM and > 100 µM with K-562 leukemia. In addition, the TGI in the test on DU-145 prostate was found to be 0.769 µM.

Take `O=C1C(=O)c2c(nc3ncccn23)-c2ccccc21`: the GI50 was 0.339 µM with SF-268 CNS; 0.306 µM in the test with OVCAR-8 ovarian; 0.271 µM with HOP-92 NSCLC; 0.173 µM in the test on SF-295 CNS; 0.244 µM in the test with HS 578T breast; 0.204 µM with OVCAR-3 ovarian. Further, the GI50 with HCT-116 colon was 0.184 µM; in the test with SNB-19 CNS, 0.247 µM; in the test on K-562 leukemia it was 0.219 µM; in the test on DU-145 prostate, 0.181 µM. Also, the TGI in the test with SF-268 CNS was determined as 1.13 µM; with OVCAR-8 ovarian, 1.27 µM; with HOP-92 NSCLC it was 1 µM; in the test on SF-295 CNS, 0.316 µM; with HS 578T breast, 0.631 µM; in the test with OVCAR-3 ovarian it was 0.5 µM. Further, the TGI with HCT-116 colon is 0.379 µM; with SNB-19 CNS it was 0.722 µM; with K-562 leukemia, 2.75 µM; in the test on DU-145 prostate, 0.336 µM.

As for `COc1ccc2c(c1)C(=O)c1c-2n(CCCCl)c(=O)c2cc(N(C)C)ccc12`, the GI50 is 33.3 µM with SF-268 CNS; 42.5 µM with OVCAR-8 ovarian; 3.42 µM in the test with HOP-92 NSCLC; above 100 µM in the test with SF-295 CNS; 26.8 µM in the test on HS 578T breast; above 100 µM in the test on OVCAR-3 ovarian. The GI50 in the test on HCT-116 colon is 43.9 µM; with SNB-19 CNS it was 56.4 µM; in the test with K-562 leukemia, above 100 µM; in the test on DU-145 prostate, above 100 µM. The TGI was above 100 µM in the test on SF-268 CNS; above 100 µM with OVCAR-8 ovarian; 23.4 µM with HOP-92 NSCLC; above 100 µM in the test on SF-295 CNS; above 100 µM with HS 578T breast; above 100 µM in the test on OVCAR-3 ovarian. In addition, the TGI in the test with HCT-116 colon, in the test on SNB-19 CNS, with K-562 leukemia and with DU-145 prostate was above 100 µM in each case.

Turning to `CC12CCC(O)CC1CCC1C2CCC2(C)C(C3=CC(=O)OC3)CCC12` (stereo not given), the GI50 in the test on SF-268 CNS was 5.17 µM; in the test on OVCAR-8 ovarian, 16.9 µM; in the test with HOP-92 NSCLC, 5.02 µM; with SF-295 CNS it was 10.7 µM; in the test with HS 578T breast, 3.48 µM; in the test with OVCAR-3 ovarian, above 86.6 µM. Moreover, the GI50 was 25.5 µM in the test with HCT-116 colon, 14.2 µM in the test with SNB-19 CNS, above 100 µM in the test on K-562 leukemia and 42.4 µM with DU-145 prostate. The TGI in the test on SF-268 CNS is above 41.8 µM; in the test on OVCAR-8 ovarian, above 100 µM; in the test with HOP-92 NSCLC it was 29.5 µM; in the test on SF-295 CNS, 27.4 µM; in the test on HS 578T breast, above 48.5 µM; with OVCAR-3 ovarian, above 100 µM. For the same compound, the TGI in the test with HCT-116 colon, in the test with SNB-19 CNS, in the test on K-562 leukemia and in the test on DU-145 prostate was above 100 µM throughout.

With `Cc1[nH]nc(C(=O)Nc2n[nH]c3ccccc23)c1[N+](=O)[O-]`, the GI50 in the test with SF-268 CNS was above 100 µM; in the test with OVCAR-8 ovarian, above 100 µM; in the test on HOP-92 NSCLC, above 100 µM; in the test with SF-295 CNS, above 100 µM; with HS 578T breast, above 68.7 µM; in the test on OVCAR-3 ovarian it was above 100 µM. The GI50 with HCT-116 colon is above 100 µM; with SNB-19 CNS, above 100 µM; in the test with K-562 leukemia, above 100 µM; in the test on DU-145 prostate it was above 79.7 µM. Besides, the TGI in the test on SF-268 CNS, with OVCAR-8 ovarian, in the test with HOP-92 NSCLC, in the test with SF-295 CNS, in the test with HS 578T breast and with OVCAR-3 ovarian was above 100 µM in each case. Moreover, the TGI in the test on HCT-116 colon, in the test on SNB-19 CNS, in the test with K-562 leukemia and in the test with DU-145 prostate was above 100 µM throughout.

Turning to `COc1cccc2c1C(=O)c1c(O)c3c(c(O)c1C2=O)C[C@@](O)(/C(C)=N\O)C[C@@H]3OC1CC(N)C(O)C(C)O1` (stereo not given in full), the TGI in the test with SF-268 CNS turned out to be 5.77 µM; in the test on OVCAR-8 ovarian, 11.8 µM; in the test with HOP-92 NSCLC, 7.31 µM; in the test with SF-295 CNS, 7.84 µM; with HS 578T breast, 6.58 µM; in the test on OVCAR-3 ovarian, 8.58 µM. The TGI in the test on HCT-116 colon was 7.55 µM; in the test with SNB-19 CNS, 8.93 µM; in the test with K-562 leukemia it was 7.72 µM; in the test on DU-145 prostate, 5.74 µM.

As to `COc1cc2c3c(n(CCCNCCN4CCOCC4)c(=O)c2cc1OC)-c1cc2c(cc1C3=O)OCO2`, the TGI is 8.09 µM and > 65.8 µM with SF-268 CNS; 17.4 µM in the test on OVCAR-8 ovarian; 12.4 µM and 3.92 µM in the test with HOP-92 NSCLC; 2.13 µM and 1.55 µM in the test with SF-295 CNS; 13.3 µM and 48 µM in the test with HS 578T breast; 1.4 µM and 3.27 µM in the test with OVCAR-3 ovarian. The TGI in the test on HCT-116 colon is 0.0975 µM; with SNB-19 CNS, 50 µM and > 55.2 µM; in the test with K-562 leukemia, above 67.1 µM; with DU-145 prostate it was 3.8 µM. Moreover, the GI50 in the test with OVCAR-8 ovarian is 4.37 µM; in the test with HOP-92 NSCLC, 5.79 µM and 1.26 µM; in the test on SF-295 CNS it was < 0.005 µM and 0.0343 µM; in the test on HS 578T breast, 2.94 µM and 16.9 µM; in the test with OVCAR-3 ovarian, 0.528 µM and 0.6 µM; in the test on HCT-116 colon, below 0.005 µM. The GI50 in the test on SNB-19 CNS was 2.23 µM and 0.77 µM; with K-562 leukemia, 7.72 µM; in the test on DU-145 prostate, 0.678 µM.

Regarding `O=C1C=C(Nc2nc(C(=O)O)cc(=O)[nH]2)c2ccccc2C1=O`, the TGI with SF-268 CNS, with OVCAR-8 ovarian, in the test on HOP-92 NSCLC, with SF-295 CNS, in the test on HS 578T breast and with OVCAR-3 ovarian was above 100 µM throughout. The TGI in the test with HCT-116 colon, in the test on SNB-19 CNS, in the test with K-562 leukemia and with DU-145 prostate was above 100 µM each time.

On to `O=[N+]([O-])c1ccc2c(c1)S(=O)c1ccccc1-2` (stereo not given), for which the TGI in the test on SF-268 CNS, in the test with OVCAR-8 ovarian, with HOP-92 NSCLC, with SF-295 CNS, with HS 578T breast and in the test with OVCAR-3 ovarian was above 100 µM throughout. For the same compound, the TGI with HCT-116 colon, with SNB-19 CNS, in the test with K-562 leukemia and with DU-145 prostate was above 100 µM throughout.
